The source made the active and inactive calls.
Assays:
Troponin, cardiac muscle = Troponin, cardiac muscle (Homo sapiens, UniProt P19429+P45379+P63316); test: Fluorescence-based biochemical high throughput dose response assay for activators of the calcium sensitivity of cardiac Regulated Thin Filaments (RTF). [Related pubchem assays (depositor defined):AID493008, AID493018, AID504382, AID504383]; type: protein-complex assay
[1] = molecular target: T1, Mannose-6-phosphate isomerase (Homo sapiens, UniProt P34949); test: phosphomannose isomerase inhibition – biochemical, fluorescence intensity, confirmation (AID 1535)
T1 sequence (P34949 whole entry): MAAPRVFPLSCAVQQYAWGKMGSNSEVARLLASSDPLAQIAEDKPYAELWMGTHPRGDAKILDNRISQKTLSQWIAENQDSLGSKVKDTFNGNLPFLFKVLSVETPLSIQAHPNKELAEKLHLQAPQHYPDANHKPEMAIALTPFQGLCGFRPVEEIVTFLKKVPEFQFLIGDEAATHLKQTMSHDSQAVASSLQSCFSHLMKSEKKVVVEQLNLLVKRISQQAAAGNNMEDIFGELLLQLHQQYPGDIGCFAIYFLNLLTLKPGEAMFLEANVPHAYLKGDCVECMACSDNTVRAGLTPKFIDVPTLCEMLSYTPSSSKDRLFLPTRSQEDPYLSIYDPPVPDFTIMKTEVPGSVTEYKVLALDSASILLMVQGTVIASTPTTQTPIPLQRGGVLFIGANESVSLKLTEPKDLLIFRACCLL

Phosphomannomutase 2 = Phosphomannomutase 2 (Homo sapiens, UniProt O15305); test: Counter screen SAR assay for PMM2 inhibitors via a fluorescence intensity assay. [Related pubchem assays (depositor defined):AID1545, AID1574]
cells = type: functional
[2] = NIH3T3 cell viability loss – ATP luminescence, mouse fibroblasts, counter-screen, dose response (AID 2010); type: functional, cell-based;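 further: cells exposed to compound for about 90 hours before reading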
[3] = THP-1 cell cytotoxicity, dose response, cytotoxicity control for non-replicating M. tuberculosis project (AID 489025); type: functional
[4] = Vero E6 cell cytotoxicity, dose response, cytotoxicity control for non-replicating M. tuberculosis project, secondary assay (AID 492998); type: functional, VeroE6; conditions: Vero C1008
Vero = test: cells; type: functional; conditions: Chlorocebus sabaeus
[5] = HepG2 cell cytotoxicity, dose response, cytotoxicity control for non-replicating M. tuberculosis project (AID 489018); type: functional; conditions: Mycobacterium tuberculosis
[6] = Trypanosoma cruzi growth suppression in host cells – NIH3T3 host cells, beta-gal luminescence, confirmation (AID 2044); type: functional, cell-based;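 further: intracellular parasites grown in NIH/3T3 mouse fibroblasts as host cells; luminescent beta-galactosidase reporter signal from transgenic T. cruzi replicating inside host cells; inhibitors lower the luminescence signal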
[7] = molecular target: G-protein coupled receptor 55 (Homo sapiens, UniProt Q9Y2T6); test: selective activators of receptor GPR55 – imaging, U2OS cells, beta-arrestin-GFP redistribution, primary screen (AID 1961); type: functional
[8] = molecular target: T2, Short transient receptor potential channel 4 (Mus musculus, UniProt Q9QUQ5); test: potentiation of DAMGO-evoked TRPC4 calcium signal – cell-based, HEK293 TRPC4/mu-opioid, Fluo-4 calcium, EC20 DAMGO, dose response (AID 434941); type: functional
T2 sequence (Q9QUQ5 whole entry): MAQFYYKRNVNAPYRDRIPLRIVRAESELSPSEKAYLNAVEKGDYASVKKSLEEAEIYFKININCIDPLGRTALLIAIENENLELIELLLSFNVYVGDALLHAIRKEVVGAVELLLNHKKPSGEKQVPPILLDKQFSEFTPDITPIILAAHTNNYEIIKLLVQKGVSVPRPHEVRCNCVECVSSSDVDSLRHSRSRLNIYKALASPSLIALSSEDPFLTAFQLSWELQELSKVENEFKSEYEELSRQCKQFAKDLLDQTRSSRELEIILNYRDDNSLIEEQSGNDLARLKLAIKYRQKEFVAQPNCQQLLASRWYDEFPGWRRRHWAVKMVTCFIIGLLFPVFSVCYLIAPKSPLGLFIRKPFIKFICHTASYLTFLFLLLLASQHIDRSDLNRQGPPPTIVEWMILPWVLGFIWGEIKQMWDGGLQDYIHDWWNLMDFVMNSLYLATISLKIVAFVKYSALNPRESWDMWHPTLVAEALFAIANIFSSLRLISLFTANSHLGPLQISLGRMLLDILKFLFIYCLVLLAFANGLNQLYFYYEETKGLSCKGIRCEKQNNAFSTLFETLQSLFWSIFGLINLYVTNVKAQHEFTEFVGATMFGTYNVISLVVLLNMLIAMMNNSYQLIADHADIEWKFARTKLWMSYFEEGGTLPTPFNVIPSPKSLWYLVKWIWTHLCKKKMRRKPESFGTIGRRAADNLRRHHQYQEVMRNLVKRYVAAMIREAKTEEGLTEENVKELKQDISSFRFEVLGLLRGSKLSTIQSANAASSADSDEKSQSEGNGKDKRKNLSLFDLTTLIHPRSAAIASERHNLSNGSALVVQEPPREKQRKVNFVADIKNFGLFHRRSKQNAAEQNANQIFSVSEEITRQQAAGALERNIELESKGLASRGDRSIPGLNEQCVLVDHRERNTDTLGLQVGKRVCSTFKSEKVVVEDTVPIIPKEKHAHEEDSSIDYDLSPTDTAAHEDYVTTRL

Phosphomannomutase 2, sequence (O15305 whole entry): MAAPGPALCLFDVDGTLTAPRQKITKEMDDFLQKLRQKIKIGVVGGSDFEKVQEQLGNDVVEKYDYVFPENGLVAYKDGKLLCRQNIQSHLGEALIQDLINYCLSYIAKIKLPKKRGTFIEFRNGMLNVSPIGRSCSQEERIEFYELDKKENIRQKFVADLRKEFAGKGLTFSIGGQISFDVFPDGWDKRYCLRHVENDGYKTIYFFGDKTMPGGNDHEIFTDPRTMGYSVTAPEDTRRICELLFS
G-protein coupled receptor 55, sequence (Q9Y2T6 whole entry): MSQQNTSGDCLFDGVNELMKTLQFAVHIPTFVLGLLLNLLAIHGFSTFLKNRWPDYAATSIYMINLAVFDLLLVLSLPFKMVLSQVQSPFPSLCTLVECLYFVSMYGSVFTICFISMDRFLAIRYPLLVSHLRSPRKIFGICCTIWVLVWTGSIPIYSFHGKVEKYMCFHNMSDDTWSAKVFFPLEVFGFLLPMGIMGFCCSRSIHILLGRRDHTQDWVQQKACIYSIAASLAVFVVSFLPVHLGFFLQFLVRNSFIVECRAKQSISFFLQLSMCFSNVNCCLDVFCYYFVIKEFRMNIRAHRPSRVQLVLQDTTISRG

With Cc1cc(S(=O)(=O)N2CCCC(C(=O)Nc3ccc(C(=O)O)cc3)C2)ccc1Cl (configuration not stated) the EC50 (Troponin, cardiac muscle) was > 71.5 µM (inactive).
In the case of CCOC(=O)c1ccc(NC2Nc3cc(C)nn3S2)cc1 (configuration not stated), the IC50 [1] was > 50 µM (inactive) and the IC50 (Phosphomannomutase 2) was > 100 µM (inactive).
With O=C(Nc1nc2ccccc2n1CCOc1ccc(Cl)cc1)c1ccco1 the IC50 (cells) was 9.2 µM (active), the EC50 [2] was 8.97 µM (active) and the CC50 [3] was 34.4 µM (active). For the same compound, the CC50 [4] was 9.25 µM (active), the CC50 (Vero) was 14 µM (active) and the CC50 [5] was > 20 µM (active). The EC50 [6] was 2.02 µM (active).
For O=C(CSc1nc2ccccc2s1)N1c2ccccc2Sc2ccccc21, the EC50 [7] was 12.7 µM (inactive).
For Cc1cc(-c2ccc(C)c(S(=O)(=O)N3CCN(C(=O)c4ccco4)CC3)c2)on1, the EC50 [8] was 6.68 µM (active).

Reference: ChEMBL document CHEMBL1201862, “PubChem BioAssay data set” (2004)
